Source: paper PMC9394307, “Discovery of Putative Dual Inhibitor of Tubulin and EGFR by Phenotypic Approach on LASSBio-1586 Homologs” (Pharmaceuticals, 2022)
“And” between values parts separate entries of the source, which are not always exact repeats. Equal entries are not always repeated. Where two headings read alike, the source gives them in different places.

Assays:
H1975 = test: MTT cell viability assay, H1975; assay type: cell-based, human; conditions: Homo sapiens, MTT, value (95% CI), read-out: CC50 (µM) (CI) H1975
Experimental: (§1) The cytotoxic activity of compounds 3–13 was determined based on an MTT assay against different human tumor cell lines, using LASSBio-1586 (2), LASSBio-1735 (3), CA-4 (1) and pelitinib as standards (Table 2). To determine the cytotoxic selectivity index, compounds were also evaluated toward human lymphocytes (Table 3).
(§2) The target compounds were tested (0.0001–100 µM) for cytotoxic activity against selected human cancer cell lines, such as HL-60 (acute promyelocytic leukemia), MCF-7 (mammary adenocarcinoma), PC-3 (prostate adenocarcinoma), H1975 (non-small cell lung cancer—EGFR^L858R+T790M), PC-9 (non-small cell lung cancer—EGFR^L858R) H292 (mucoepidermoid pulmonary carcinoma—EGFR wild type), LoVo (colorectal adenocarcinoma—EGFRwild type) and GM16000 (lymphocyte). All the human cancer cell lines were purchased from Cell Bank of Rio de Janeiro—BCRJ. They were cultured in RPMI 1640 medium with 10% (v/v) FBS, 2 mM glutamine, at 37 °C in a humidified incubator containing 5% CO2.
(§3) The cytotoxicity of the compounds was evaluated by the MTT assay. […] For lymphocytic lines, a density of 0.3 × 10^6 cells/mL was used. Afterwards they were treated with varying concentrations of the target compounds 2–12 (0.0001–100 µM), CA-4 (1) and pelitinib at 37 °C, in triplicate. The medium was incubated with 20 μL of 5 mg/mL MTT solution for 3 h in a humidified incubator containing 5% CO2 [11].
(§4) The purple-colored formazan crystals formed in the wells were dissolved in DMSO and their absorbance was measured at 595 nm with a microplate reader (SpectraMax M5, Molecular Devices).

H1975 cells = test: Immunofluorescence of β-tubulin / microtubules; assay type: cell-based, human; conditions: H1975, 48 h, CA-4 0.3 µM, vincristine 0.5 µM, taxol 0.1 µM, LASSBio-1586 10 µM, LASSBio-1735 0.5 µM, LASSBio-2070 4.5 µM, LASSBio-2074 20 µM
Experimental: Antitubulin agents have been broadly classified into destabilizing or stabilizing agents, based on their interference with the dynamic balance of polymerization or depolymerization of microtubules. […] CA-4 (1, 0.3 µM), vincristine (0.5 µM) and taxol (0.1 µM) were used as standard controls.
After incubation, cells were rinsed with PBS and fixed with 4% paraformaldehyde in PBS for 10 min at room temperature. They were then permeabilized with 0.5% Triton-X 100 in PBS 3 times for 10 min. The same solution was used for all subsequent washing steps. Cells were incubated with an anti-beta-tubulin antibody for 1 h at 37 °C. After incubation, cells were washed for 30 min and incubated with Alexa Fluor® 488, conjugated secondary antibody for 1 h at 37 °C, and nuclei were labeled with DAPI (0.1 mg/mL in 0.9% NaCl).
Live cultured cells grown in coverslips were mounted in Prolong Gold solution (Molecular Probes, USA) and were imaged on a Leica TCS SPE confocal microscope (Leica Microsystems, Germany) using 63x 1.3 N.A. oil immersion and the images acquired by the LAS X software. Cell morphology, focusing on the microtubules was analyzed, qualitatively, using the public domain NIH ImageJ Program (developed at the National Institutes of the USA Health and available on the internet at http://imagej.nih.gov/ij/ (accessed on 1 September 2021).

HL-60 = test: MTT cell viability assay, HL-60; assay type: cell-based, human; conditions: MTT, value (95% CI), read-out: CC50 (µM) (CI) HL-60
Experimental: as §1, §2, §3, §4

PC-9 = test: MTT cell viability assay, PC-9; assay type: cell-based, human; conditions: Homo sapiens, MTT, value (95% CI), read-out: CC50 (µM) (CI) PC-9
Experimental: as §1, §2, §3, §4

LoVo = test: MTT cell viability assay, LoVo; assay type: cell-based; conditions: Homo sapiens, 48 h, value (95% CI)
[1] = MTT cell viability assay, GM16000 lymphocytes; assay type: cell-based; conditions: GM16000 lymphocyte cells (non-tumor), human lymphocytes, value (95% CI)
MCF-7 = test: MTT cell viability assay, MCF-7; assay type: cell-based, human; conditions: MTT, 72 h, value (95% CI), read-out: CC50 (µM) (CI) MCF-7
Experimental: as §1, §2
The cytotoxicity of the compounds was evaluated by the MTT assay. The cell lines were cultured in 96 well plates for 72 h with a density of 0.1 × 10^5 cells/mL to 0.7 × 10^5 cells/mL to adherent cell lines. For lymphocytic lines, a density of 0.3 × 10^6 cells/mL was used. Afterwards they were treated with varying concentrations of the target compounds 2–12 (0.0001–100 µM), CA-4 (1) and pelitinib at 37 °C, in triplicate. The medium was incubated with 20 μL of 5 mg/mL MTT solution for 3 h in a humidified incubator containing 5% CO2 [11].
as §4

[2] = Homo sapiens, HL-60, 48 h, 48 h
[3] = Homo sapiens, HL-60, 72 h, 72 h

SMILES | CC50 (H1975; NCI-H1975, 48 h, 48 h) | CC50 (H1975; NCI-H1975, 72 h, 72 h) | melting point | cell morphology after treatment (H1975 cells) | effect on microtubules (stabilizing / destabilizing profile) (H1975 cells) | effect on microtubules (stabilizing / destabilizing profile) (H1975 cells; listed as 3 (LASSBio-1735)) | CC50 (HL-60; [2]) | CC50 (HL-60; [3]) | CC50 (PC-9; PC-9, 48 h, 48 h) | CC50 (PC-9; PC-9, 72 h, 72 h) | CC50 (LoVo) | CC50 at 48 h [1] | CC50 (MCF-7; Homo sapiens, MCF7, 72 h) | CC50 (MCF-7) | effect on microtubules (stabilizing / destabilizing profile) (H1975 cells; listed as 2 (LASSBio-1586)) | CC50 (HL-60; 72 h)
COc1cc(C(=O)N(C)/N=C/c2ccccc2)cc(OC)c1OC [LASSBio-1735 (3), (E)-N’-benzylidene-3,4,5-trimethoxy-N-methylbenzohydrazide] | 0.096 µM | 0.079 µM | 110 °C and 110.56 °C | more spread-out morphology | cell morphology similar to microtubule-stabilizing drugs | microtubule destabilizing behavior | 8.77 µM | 0.039 µM | 1.34 µM | 0.09 µM | 0.479 µM | 0.059 µM | 0.28 µM | 0.276 µM |  | 
COc1cc(C(=O)N(Cc2ccccc2)/N=C/c2ccccc2)cc(OC)c1OC [LASSBio-2070 (10), (E)-N-benzyl-N’-benzylidene-3,4,5-trimethoxybenzohydrazide] | 0.903 µM | 2.79 µM | 130 to 131 °C and 130.12 °C | rounded shape | typical response of microtubule destabilizing agents |  | 6.29 µM | 0.172 µM | 0.244 µM | 0.337 µM | 2.12 µM | 0.935 µM | 1.7 µM |  |  | 
CCOC(=O)CN(/N=C/c1ccccc1)C(=O)c1cc(OC)c(OC)c(OC)c1 [LASSBio-2074 (11), Ethyl (E)-N-(benzylideneamino)-N-(3,4,5-trimethoxybenzoyl)glycinate] | 4.83 µM | 1.2 µM | 91 to 92 °C and 91.67 °C | more spread-out morphology | cell morphology similar to microtubule-stabilizing drugs |  | 5.69 µM | 0.126 µM | 1.41 µM | 0.202 µM | 2.64 µM | 3.91 µM | 0.869 µM |  |  | 
COc1cc(C(=O)N/N=C/c2ccccc2)cc(OC)c1OC [LASSBio-1586 (2), (E)-N’-benzylidene-3,4,5-trimetoxybenzohydrazide] | 2.02 µM | 1.57 µM |  | more spread-out morphology | cell morphology similar to microtubule-stabilizing drugs |  | 3.59 µM | 2.08 µM | 0.94 µM | 0.587 µM | 1.72 µM | 0.763 µM | 7.53 µM |  | microtubule destabilizing behavior | 2.13 µM
